What was measured:
[1] = Absorption of sodium cefoxitin with varying concentrations of hexadecyl lysinate in rats, percent bioavailability (Example 9); type: in vivo, rat; conditions: for bioavailability: rat, serum, 2.5 mg, pH 6, rats, hexadecyl lysinate 0 mg/body, 2.5 mg sodium cefoxitin, pH 6
Procedure: Percent bioavailability was determined versus intravenous administration. Each animal received 2.5 mg sodium cefoxitin with varying amounts of hexadecyl lysinate.

[2] = Absorption of sodium cefoxitin with or without alcohol-lysine esters in rats, percent bioavailability versus intravenous (Example 6); conditions: for bioavailability: rat, serum, 2.5 mg; for effect as absorption promoter at 5 mg/dose (in words): 5 mg/dose level, comparison with hexadecyl lysinate
Procedure: Blood samples were collected, sodium cefoxitin assayed, and "area-under-the-curve"* calculated. Percent bioavailability was determined versus intravenous administration. Each animal received 2.5 mg sodium cefoxitin ±5.0 mg alcohol-lysine ester. From 3 to 12 animals were used for each compound.

[3] = Absorption of cytarabine with or without hexadecyl lysinate in rats, percent bioavailability versus intravenous (Example 8); conditions: rat, in vivo, 2.5 mg, pH 6, rats, 2.5 mg cytarabine ± 5.0 mg hexadecyl lysinate, 250 μl, pH 6, versus intravenous
Procedure: The absorption of cytarabine, an antineoplastic and antiviral agent, was tested in rats employing aqueous formulations of cytarabine and hexadecyl lysinate. The compounds were administered in a total volume of 250 μl at pH 6. Both rectal and duodenal sites in the intestine were tested. Blood samples were collected, cytarabine assayed, and "area-under-the-curve"* calculated. Percent bioavailability was determined versus intravenous administration. Each animal received 2.5 mg cytarabine ±5.0 mg hexadecyl lysinate. Three animals were used for each experiment.

`CO[C@@]1(NC(=O)Cc2cccs2)C(=O)N2C(C(=O)O)=C(COC(N)=O)CS[C@@H]21` [Cefoxitin] gave a bioavailability ([1]; duodenal, read-out: Percent Cefoxitin Bioavailability (mean ± SE), Duodenal) of 1%, a bioavailability ([1]; rectal, read-out: Percent Cefoxitin Bioavailability (mean ± SE), Rectal) of 2 ± 1.1% and a bioavailability ([2]; intestinal absorption of sodium cefoxitin, with 5 mg/dose promoter (hexadecyl lysinate) or without) of 1%. For the same compound, the bioavailability ([2]; pH 7, Percent Cefoxitin Bioavailability (mean ± SE), Duodenal, rats, 2.5 mg sodium cefoxitin ± 5.0 mg alcohol-lysine ester, 250 μl, pH 7, versus intravenous) was 1% and the bioavailability ([2]; pH 7, Percent Cefoxitin Bioavailability (mean ± SE), Rectal, rats, 2.5 mg sodium cefoxitin ± 5.0 mg alcohol-lysine ester, 250 μl, pH 7, versus intravenous) was 2 ± 1.1%.

With `O=C(O)CN(CCN(CC(=O)O)CC(=O)O)CC(=O)O` [EDTA] the “effect as absorption promoter at 5 mg/dose (in words)” value [2] was “ineffective”.

With `CCCCCCCCCCCCCCCCOC(=O)[C@@H](N)CCCCN` [Hexadecyl lysinate] the “concentration dependence of absorption promoting effect (in words)” value ([1]; Example 9) was “act in a concentration dependent manner”.

With `O=C(O)c1ccccc1O` [salicylate] the “effect as absorption promoter at 5 mg/dose (in words)” value [2] was “ineffective”.

`Nc1ccn([C@@H]2O[C@H](CO)[C@@H](O)[C@@H]2O)c(=O)n1` [Cytarabine] gave a bioavailability ([3]; duodenal, read-out: Percent Cytarabine Bioavailability (mean ± SE), Duodenal) of 5% and a bioavailability ([3]; rectal, read-out: Percent Cytarabine Bioavailability (mean ± SE), Rectal) of 6 ± 1.7%.
